Our source for the Kd and maximum binding capacity values is patent publication US6709830B2, “Methods for modulating the activation of a lymphocyte expressed G protein coupled receptor involved in cell proliferation, autoimmunity and inflammation” (The Regents of the University of California, priority 1997, dated 2004).

The target of the assay is T1, G2A (Mus musculus, UniProt Q9Z282).
T1 construct: expressed in transfected cells; host or cells: MCF 10A (human breast epithelial cells, no endogenous G2A), plasmid pEXV3 G2A.GFP
T1 sequence (Q9Z282 1-382): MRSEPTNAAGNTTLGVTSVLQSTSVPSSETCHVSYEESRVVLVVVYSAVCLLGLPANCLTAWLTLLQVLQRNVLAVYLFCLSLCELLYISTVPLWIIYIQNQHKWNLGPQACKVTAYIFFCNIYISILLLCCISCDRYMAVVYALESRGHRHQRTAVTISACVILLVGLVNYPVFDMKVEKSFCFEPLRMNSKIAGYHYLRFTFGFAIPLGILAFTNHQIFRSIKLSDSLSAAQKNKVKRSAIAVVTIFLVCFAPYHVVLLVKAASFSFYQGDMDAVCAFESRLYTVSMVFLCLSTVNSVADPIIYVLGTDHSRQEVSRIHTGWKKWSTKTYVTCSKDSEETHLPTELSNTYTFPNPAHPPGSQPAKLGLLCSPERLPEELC
Briefly: Radioligand binding assay with cell homogenates of HEK 293 G2A.GFP cells. To be noted: HEK 293 G2A.GFP cell homogenate. How it is done: To characterise the binding of LPC and SPC to G2A, we performed radioligand binding assays as described previously (Xu, Y, e al, Nature Cell Biology, 2: pp261-267, 2000). [^3H] 16:0 LPC and [^3H] SPC bound to cell homogenates from G2A expressing HEK 293 cells in a time-dependent manner and reached equilibrium after 60 minutes incubation at 4° C. (FIGS. 5A and B). […] LPC and [^3H] SPC. Binding of [^3H] LPC and [^3H] […] The maximum binding capacities for LPC and SPC were approximately 1,503 fmole/10^5 cells and 1,840 fmole/10^5 cells respectively.
Binding assay HEK 293 GFP or HEK 293 G2A.GFP cells were serum starved for 20 hours and subsequently collected in PBS/EDTA. Pelleted cells were stored at −80° C. until use. Frozen cells (10^6 cells/ml) were homogenized in “binding buffer” containing 20 mM Tris-HCl pH 7.5, 100 mM NaCl, 15 mM NaF, 0.2 mM PMSF, 1 mM MgCl2 and 4 mg/ml fatty acid-free BSA in a tight-fit glass Dounce homogeniser. Assays were performed in 96-well plates in triplicate with 100 μl cell homogenate (equivalent to 10^5 cells/well). Varying amounts of [^3H] 16:0 LPC or [^3H] SPC were added to cell homogenates in 50 μl of binding buffer in the presence or absence of cold 16:0 LPC or SPC, or other competitors. Plates were incubated at 4° C. for 2 hours, or for the indicated times. Cell-bound [^3H] LPC or [^3H] SPC was collected onto a filter (Printed Filtermat A, Wallac, Gaithersburg, Md.) using an automated cell harvester (HARVESTER 96, Tomtec, Orange, Conn.). A pause wash programme (five cycle washes) was used. Filters were presoaked in 1% polyethyleneimine (Sigma) to prevent nonspecific binding, dried, sealed in bags (Sample Bag, Wallac) with 4.5 ml Betaplate “Scint” scintillation cocktail (Wallac), and counted in a 1450 Microbeta Trilux Liquid Scintillation and Luminescence Counter (Wallac). Specific binding was calculated by subtraction of nonspecific binding (binding detected in the presence of 100-fold excess unlabelled lipid) from total binding.

For orientation: Kd means a measure of binding affinity in units of concentration.

Regarding lysophosphatidylcholine [LPC], the Kd (Scatchard analysis, saturation binding of [3H] 16:0 LPC or [3H] SPC, 4° C., read-out: dissociation constant (Kd)) is 65 nM. Further, the maximum binding capacity result (saturation binding) is on record as “approximately 1,503 fmole/10^5 cells”.
